For 14 compounds, EC50 results are on record in patent US8183243B2, “Melanocortin receptor agonists” (LG Life Sciences Ltd., priority 2008, dated 2012).

The EC50 is the concentration that produces a half-maximal response.

The target in one assay is T1, MC4R (Homo sapiens, UniProt P32245).
T1 construct: expressed in transfected cells; host or cells: HEK (Human Embryonic Kidney) permanent expression cell line HEK MC4R-Luc, co-expressing CRE-luciferase
T1 sequence (P32245 whole entry, species assumed): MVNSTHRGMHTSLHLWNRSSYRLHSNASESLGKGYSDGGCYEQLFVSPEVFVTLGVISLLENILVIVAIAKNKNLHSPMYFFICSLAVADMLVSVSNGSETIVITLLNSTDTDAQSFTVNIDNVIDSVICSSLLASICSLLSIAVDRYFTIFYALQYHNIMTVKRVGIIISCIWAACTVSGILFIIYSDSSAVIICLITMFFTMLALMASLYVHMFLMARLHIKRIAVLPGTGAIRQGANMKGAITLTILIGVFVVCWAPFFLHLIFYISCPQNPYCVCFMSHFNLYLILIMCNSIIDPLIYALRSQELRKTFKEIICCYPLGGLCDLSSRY
As to the kind of experiment: MCR agonistic activity (luciferase assay / cAMP accumulation assay) on MC4R. In kind it is cell-based. Particulars: HEK cell lines expressing MC4R; method A (CRE-luciferase) or B (cAMP accumulation), not said which; read-out: EC50 value, agonistic activity to MC4R (range per group of Examples). The procedure: Physiological activity of the compounds of the present invention was assessed by measuring agonistic activity as well as binding activity for melanocortin receptors (MCR) according to methods A and B explained as follows.
As one of the methods to measure MCR agonistic activity of the compound according to the present invention, the expression level of a marker gene (for example, luciferase) which increases proportionally according to the increase of cAMP content in the cell, was measured.
First, permanent expression HEK (Human Embryonic Kidney) cell lines (HEK MC1R-Luc, MC3R-Luc, MC4R-Luc or MC5R-Luc) expressing the MCR gene of each subtype together with luciferase gene (CRE-LUC) under the control of CRE (cAMP Response Element) were constructed. The above cell lines were incubated in an incubator with 6% CO2 atmosphere at 37° C. using selection medium, DMEM(Dulbecco's Modified Eagles Medium) containing 10% heat-inactivated fetal bovine serum (Gibco/BRL), 100 unit/ml, penicillin (Gibco/BRL), 100 unit/ml streptomycin (Gibco/BRL), and 200 μg/ml geneticin (G418) (Gibco/BRL). When the cell covered 70% of total surface of the culture dish with 100 mm diameter, the culture dish was rinsed one time with 10 ml Phosphate Buffered Saline(PBS) free of Ca^++ and Mg^++, and then 3 ml PBS solution containing 0.05% trypsin and 0.53 mM EDTA was added thereto. After the trypsin/EDTA solution was removed, the cell lines were incubated in an thermostatic incubator for 1 minute at 37° C., and resuspended in 10 ml selection medium and centrifuged for 5 minutes at 1500 rpm. The supernatant was discarded and the settled cells were resuspended in 5 ml selection medium free of Phenol Red. The resulting cell-suspension was plated onto each well of 96-well culture plates for Luminometer(Costar) with a concentration of 5×10^4 cell in 100 μl culture medium for each well and incubated in the incubator with 6% CO2 atmosphere at 37° C. for 18 hours. With MCR agonists (Example compounds) diluted stepwise using the above culture medium, the cells were treated under the condition of the final DMSO concentration not exceeding 1%, and incubated for 5 hours in the atmosphere of 6% CO2 at 37° C. Then, 50 μl Bright-Glo (Promega) was added to each well. After allowing the treated cells to be at room temperature for 15 minutes, luminescence was measured for each well by using luminometer (Victor). The level of luminescence induced by the stepwise-diluted agonist was converted to relative % value to those by the treatment of 10 nM NDP-MSH. The EC50 indicates the concentration of each agonist for inducing 50% of maximal luminescence by each agonist and this value was measured by a statistical software (Prizm).
B. cAMP Accumulation Assay
As another method to measure MCR agonistic activity of the compound according to the present invention, an increase of cAMP amount in the cell was measured.
First, permanent expression HEK (Human Embryonic Kidney) cell lines (HEK MC1R-Luc, MC3R-Luc, MC4R-Luc or MCSR-Luc) expressing the MCR gene of each subtype were plated onto each well of 24-well culture plates for Luminometer(Costar) with a concentration of 2×10^5 cell in 1 ml culture medium for each well, and then incubated in an incubator with 6% CO2 atmosphere at 37° C. for 24 hours. The medium was removed from each well followed by rinsing with 0.5 ml cold DMEM one time. With MCR agonists (Example compounds) diluted stepwise using 200 μl DMEM including 500 μM IBMX (isobutylmethylxanthine), the cells were treated under the condition of the final DMSO concentration not exceeding 1%, and incubated for 30 minutes in the atmosphere of 6% CO2 at 37° C. Then, the cAMP amount in each cell was measured using Amersham cAMP assay Kit (TRK432).
More specifically, 14.4 μl of 6M PCA (60%) was added to each well, and allowed to be in ice for 10 minutes, and 200 μl sample was taken from each well and transferred to microcentrifuge tube. […]
(cAMP levels reflect the balance of adenylyl cyclase and phosphodiesterase activity.)
For the compound `CN1CCN(C(=O)[C@@H]2C[C@H](N(C(=O)[C@@H]3CCCO3)C3CCC(C)(C)CC3)CN2C(=O)[C@@H]2CN(C(C)(C)C)C[C@H]2c2ccc(F)cc2F)CC1` [Example 14, (2S)-N-{(3S,5S)-1-{[(3S,4R)-1-tert-butyl-4-(2,4-difluorophenyl)pyrrolidin-3-yl]carbonyl}-5-[(4-methylpiperazin-1-yl)carbonyl]pyrrolidin-3-yl}-N-(4,4-dimethylcyclohexyl)tetrahydrofuran-2-carboxamide], the 50% effective concentration (EC50) lay within 0.1 to 10 nM.

In the case of `CN1CCN(C(=O)[C@@H]2C[C@H](N(C(=O)C(C)(C)CO)C3CCC(C)(C)CC3)CN2C(=O)[C@@H]2CN(C(C)(C)C)C[C@H]2c2ccc(F)cc2F)CC1` [Example 15, N-{(3S,5S)-1-{[(3S,4R)-1-tert-butyl-4-(2,4-difluorophenyl)pyrrolidin-3-yl]carbonyl}-5-[(4-methylpiperazin-1-yl)carbonyl]pyrrolidin-3-yl}-N-(4,4-dimethylcyclohexyl)-3-hydroxy-2,2-dimethylpropanamide], the EC50 is 0.1 to 10 nM. On the same count and under the same terms, the figure for `CN1CCN(C(=O)[C@@H]2C[C@H](N(C(=O)[C@@H]3CCCO3)[C@H]3CC[C@@H](C)CC3)CN2C(=O)[C@@H]2CN(C(C)(C)C)C[C@H]2c2ccc(Cl)cc2)CC1` [Example 16, (2S)-N-{(3S,5S)-1-{[(3S,4R)-1-tert-butyl-4-(4-chlorophenyl)pyrrolidin-3-yl]carbonyl}-5-[(4-methylpiperazin-1-yl)carbonyl]pyrrolidin-3-yl}-N-(cis-4-methylcyclohexyl)tetrahydrofuran-2-carboxamide] is 0.1 to 10 nM; for `CN1CCN(C(=O)[C@@H]2C[C@H](N(C(=O)C(C)(C)C)[C@H]3CC[C@@H](C)CC3)CN2C(=O)[C@@H]2CN(C(C)(C)C)C[C@H]2c2ccc(Cl)cc2)CC1` [Example 17, N-{(3S,5S)-1-{[(3S,4R)-1-tert-butyl-4-(4-chlorophenyl)pyrrolidin-3-yl]carbonyl}5-[(4-methylpiperazin-1-yl)carbonyl]pyrrolidin-3-yl}-2,2-dimethyl-N-(cis-4-methylcyclohexyl)propanamide] it is 0.1 to 10 nM.

With `CN1CCN(C(=O)[C@@H]2C[C@H](N(C(=O)C(C)(C)C)[C@H]3CC[C@@H](C)CC3)CN2C(=O)[C@@H]2CN(C(C)(C)C)C[C@H]2c2ccc(F)cc2F)CC1` [Example 18, N-{(3S,5S)-1-{[(3S,4R)-1-tert-butyl-4-(2,4-difluorophenyl)pyrrolidin-3-yl]carbonyl}-5-[(4-methylpiperazin-1-yl)carbonyl]pyrrolidin-3-yl}-2,2-dimethyl-N-(cis-4-methylcyclohexyl)propanamide], the EC50 lay within 0.1 to 10 nM. Same read-out and setting: the figure for `CN1CCN(C(=O)[C@@H]2C[C@H](N(C(=O)C(C)(C)CO)[C@H]3CC[C@@H](C)CC3)CN2C(=O)[C@@H]2CN(C(C)(C)C)C[C@H]2c2ccc(Cl)cc2)CC1` [Example 19, N-{(3S,5S)-1-{[(3S,4R)-1-tert-butyl-4-(4-chlorophenyl)pyrrolidin-3-yl]carbonyl}-5-[(4-methylpiperazin-1-yl)carbonyl]pyrrolidin-3-yl}-3-hydroxy-2,2-dimethyl-N-(cis-4-methylcyclohexyl)propanamide] is 0.1 to 10 nM; for `CN1CCN(C(=O)[C@@H]2C[C@H](N(C(=O)C(C)(C)CO)[C@H]3CC[C@@H](C)CC3)CN2C(=O)[C@@H]2CN(C(C)(C)C)C[C@H]2c2ccc(F)cc2F)CC1` [Example 20, N-{(3S,5S)-1-{[(3S,4R)-1-tert-butyl-4-(2,4-difluorophenyl)pyrrolidin-3-yl]carbonyl}-5-[(4-methylpiperazin-1-yl)carbonyl]pyrrolidin-3-yl}-3-hydroxy-2,2-dimethyl-N-(cis-4-methylcyclohexyl)propanamide] it is 0.1 to 10 nM; for `CN1CCN(C(=O)[C@@H]2C[C@H](N(C(=O)[C@@H]3CCCO3)[C@H]3CC[C@@H](C)CC3)CN2C(=O)[C@@H]2CN(C(C)(C)C)C[C@H]2c2ccc(F)cc2F)CC1` [Example 21, (2S)-N-{(3S,5S)-1-{[(3S,4R)-1-tert-butyl-4-(2,4-difluorophenyl)pyrrolidin-3-yl]carbonyl}-5-[(4-methylpiperazin-1-yl)carbonyl]pyrrolidin-3-yl}-N-(cis-4-methylcyclohexyl)tetrahydrofuran-2-carboxamide] it is 0.1 to 10 nM.

Consider `CCN1CCN(C(=O)[C@@H]2C[C@H](N(C(=O)[C@@H]3CCCO3)[C@H]3CC[C@@H](C)CC3)CN2C(=O)[C@@H]2CN(C(C)(C)C)C[C@H]2c2ccc(Cl)cc2)CC1` [Example 22, (2S)-N-{(3S,5S)-1-{[(3S,4R)-1-tert-butyl-4-(4-chlorophenyl)pyrrolidin-3-yl]carbonyl}-5-[(4-ethylpiperazin-1-yl)carbonyl]pyrrolidin-3-yl}-N-(cis-4-methylcyclohexyl)tetrahydrofuran-2-carboxamide], for which the EC50 lay in the range of 0.1 to 10 nM.

Turning to `CC(C)N1CCN(C(=O)[C@@H]2C[C@H](N(C(=O)[C@@H]3CCCO3)[C@H]3CC[C@@H](C)CC3)CN2C(=O)[C@@H]2CN(C(C)(C)C)C[C@H]2c2ccc(Cl)cc2)CC1` [Example 23, (2S)-N-{(3S,5S)-1-{[(3S,4R)-1-tert-butyl-4-(4-chlorophenyl)pyrrolidin-3-yl]carbonyl}-5-[(4-isopropylpiperazin-1-yl)carbonyl]pyrrolidin-3-yl}-N-(cis-4-methylcyclohexyl)tetrahydrofuran-2-carboxamide], the EC50 was 0.1 to 10 nM. As for `CN1CCN(C(=O)[C@@H]2C[C@H](N(C(=O)c3ccoc3)[C@H]3CC[C@@H](C)CC3)CN2C(=O)[C@@H]2CN(C(C)(C)C)C[C@H]2c2ccc(F)cc2F)CC1` [Example 24, N-{(3S,5S)-1-{[(3S,4R)-1-tert-butyl-4-(2,4-difluorophenyl)pyrrolidin-3-yl]carbonyl}-5-[(4-methylpiperazin-1-yl)carbonyl]pyrrolidin-3-yl}-N-(cis-4-methylcyclohexyl)-3-furamide], the concentration giving a half-maximal response (EC50) fell in the range of 0.1 to 10 nM. Regarding `CN1CCN(C(=O)[C@@H]2C[C@H](N(C(=O)C(C)(C)C)C3CCC(F)(F)CC3)CN2C(=O)[C@@H]2CN(C(C)(C)C)C[C@H]2c2ccc(Cl)cc2)CC1` [Example 26, N-{(3S,5S)-1-{[(3S,4R)-1-tert-butyl-4-(4-chlorophenyl)pyrrolidine-3-yl]carbonyl}-5-[(4-methylpiperazin-1-yl)carbonyl]pyrrolidin-3-yl}-N-(4,4-difluorocyclohexyl)-2,2-dimethylpropanamide], the 50% effective concentration (EC50) was 0.1 to 10 nM.

For `CCN1CCN(C(=O)[C@@H]2C[C@H](N(C(C)=O)C3CCC(F)(F)CC3)CN2C(=O)[C@@H]2CN(C(C)(C)C)C[C@H]2c2ccc(Cl)cc2)CC1` [Example 28, N-{(3S,5S)-1-{[(3S,4R)-1-tert-butyl-4-(4-chlorophenyl)pyrrolidin-3-yl]carbonyl}5-[(4-ethylpiperazin-1-yl)carbonyl]pyrrolidin-3-yl}-N-(4,4-difluorocyclohexyl)acetamide], the 50% effective concentration (EC50) lay within 100 to 1000 nM. The same measure, in the same setting: then `CC(=O)N(C1CCC(F)(F)CC1)[C@H]1C[C@@H](C(=O)N2CCN(C(C)C)CC2)N(C(=O)[C@@H]2CN(C(C)(C)C)C[C@H]2c2ccc(Cl)cc2)C1` [Example 29, N-{(3S,5S)-1-{[(3S,4R)-1-tert-butyl-4-(4-chlorophenyl)pyrrolidin-3-yl]carbonyl}5-[(4-isopropylpiperazin-1-yl)carbonyl]pyrrolidin-3-yl}-N-(4,4-difluorocyclohexyl)acetamide], with 100 to 1000 nM.

The same assay, now with this note: specific activities of representative compounds; HEK cell lines expressing MC4R; method A or B, not said which; read-out: EC50.
Take `CN1CCN(C(=O)[C@@H]2C[C@H](N(C(=O)[C@@H]3CCCO3)[C@H]3CC[C@@H](C)CC3)CN2C(=O)[C@@H]2CN(C(C)(C)C)C[C@H]2c2ccc(Cl)cc2)CC1` [Example 16, (2S)-N-{(3S,5S)-1-{[(3S,4R)-1-tert-butyl-4-(4-chlorophenyl)pyrrolidin-3-yl]carbonyl}-5-[(4-methylpiperazin-1-yl)carbonyl]pyrrolidin-3-yl}-N-(cis-4-methylcyclohexyl)tetrahydrofuran-2-carboxamide]: the EC50 was 0.4 nM. Still for that read-out and setting: then `CN1CCN(C(=O)[C@@H]2C[C@H](N(C(=O)C(C)(C)C)C3CCC(F)(F)CC3)CN2C(=O)[C@@H]2CN(C(C)(C)C)C[C@H]2c2ccc(Cl)cc2)CC1` [Example 26, N-{(3S,5S)-1-{[(3S,4R)-1-tert-butyl-4-(4-chlorophenyl)pyrrolidine-3-yl]carbonyl}-5-[(4-methylpiperazin-1-yl)carbonyl]pyrrolidin-3-yl}-N-(4,4-difluorocyclohexyl)-2,2-dimethylpropanamide], with 6 nM.
